# Experimental data published in PubChem BioAssay AID1320 (NMMLSC, 2008).
# Calls of active or inactive are those of the source. How the calls were made is not given here.
# Molecular target: Bcl-2-related protein A1 (Homo sapiens) (UniProt Q16548)
# Assay: inhibitors of Bim binding to Bfl-1, dose response, biochemical, multiplexed, bead-based flow cytometry (AID 1320); on percent span (inhibition): test concentration not given here
# Conditions: Bim peptide-Bfl-1 binding, fluorescence
# Sequence of Bcl-2-related protein A1 (Homo sapiens) (Q16548 whole entry, looked up): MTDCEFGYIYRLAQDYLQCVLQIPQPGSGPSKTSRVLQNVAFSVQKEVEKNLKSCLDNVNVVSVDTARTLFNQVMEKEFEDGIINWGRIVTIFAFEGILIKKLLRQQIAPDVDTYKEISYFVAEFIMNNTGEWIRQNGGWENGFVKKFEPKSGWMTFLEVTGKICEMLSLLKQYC
row,Compound,EC50
1,O=C(C1=NN(c2ccccc2)C2C(=O)N(c3ccccc3)C(=O)C12)c1ccccc1 (centres undefined),1360 nM
2,Cc1c(NC2=C(Cl)C(=O)N(c3ccccc3)C2=O)c(=O)n(-c2ccccc2)n1C,inactive
3,Clc1ccc2c(N/N=C/c3ccccc3Br)ccnc2c1,inactive

# Same assay, conditions: Bim peptide-Bfl-1 binding, fluorescence, stronger effect = higher value
row,Compound,percent span (inhibition)
1,Cc1ccc(-c2cc(-c3ccccc3Cl)c(C#N)c(N)n2)o1,inactive
2,Cn1c(OCc2cccnc2)nc2c1c(=O)n(Cc1ccccc1)c(=O)n2C,inactive
3,COc1ccc(OCCNC(=O)c2ccccc2OCC(=O)N2CCCCC2)cc1,inactive
4,Cc1nn(-c2ccc(Cl)cc2)c(Cl)c1/C=C(\C#N)C(N)=O,inactive
5,CNc1nc2ccccc2n1/N=C/c1cccc(OC)c1OC,inactive
6,COc1ccc(CC(=O)Nc2ccc(C(=O)Nc3nccs3)cc2)cc1OC,inactive
7,Fc1ccccc1-n1cc(-c2ccccc2)[nH]c1=S,inactive
8,COc1ccc(NC(=O)c2ccc(CN3CCN(c4ccccc4)CC3)cc2)cc1,inactive
9,CN1N=C(C(=O)N2CCCC(C(=O)c3cccc(C(F)(F)F)c3)C2)CCC1=O (centres undefined),inactive
10,CCOc1ccc(NCc2ccccc2OCc2cccc(F)c2)cc1,inactive
11,CCOC(=O)c1nc(Nc2ccc(C(=O)OC)cc2)c2ccccc2n1,inactive
12,Cn1c(=O)c(C(=O)COC(=O)c2cc(-c3ccco3)nc3ccccc23)c(N)n(CC2CC2)c1=O,inactive
13,COC(=O)c1sc(NC(=O)c2ccc(Cn3cc(Cl)cn3)o2)c(C#N)c1C,inactive
14,CC(C)n1nnnc1SCC(=O)N1CCN(C(=O)c2ccco2)CC1,inactive
15,CCOC(=O)c1nc(Nc2ccc(Nc3ccccc3)cc2)c2ccccc2n1,inactive
16,Cc1ccc(CC(=O)OCCNC(=O)c2cccnc2)cc1,inactive
17,CCOC(=O)c1nn(-c2ccccc2)c(C#N)c1N,inactive
18,Cc1cccc(Nc2nc(-c3ccncc3)cs2)c1,inactive
19,O=C(CC1NCCNC1=O)Nc1cccc([N+](=O)[O-])c1 (centres undefined),inactive
20,COc1cc(NC(=S)NCCCO)c(OC)cc1Cl,inactive
21,Cc1cc(C)c2nc3nc(C)cc(C)c3c(N)c2c1,inactive
22,COc1cc(/C=C2/NC(=O)N(Cc3ccccc3F)C2=O)ccc1O,inactive
23,Cc1nc2ccccc2n1CSc1ccccc1,inactive
24,C=CCn1c(C)c(C(C)=O)c(N2CCOCC2)nc1=S,inactive

row,Compound,percent span (inhibition)
1,COc1ccc(OC)c(NC(=O)COC(=O)c2cc3c(s2)CCC3)c1,inactive
2,COC(=O)Cc1ccc(NC(=S)N2CCN(c3cccc(O)c3)CC2)cc1,inactive
3,CC1Cc2ccccc2N1C(=O)CSc1nnnn1-c1ccc2c(c1)OCCO2 (centres undefined),inactive
4,Cc1cc(C)cc(-n2c(C)nc3cc(C(=O)O)ccc32)c1,inactive
5,CCOCCCn1c(N)c(C(=O)Nc2sc3c(c2C(=O)OC)CCCC3)c2nc3ccccc3nc21,inactive
6,Cc1ccc(C(=O)N/N=C2/NC(=O)CC(C(=O)Nc3ccccc3)S2)cc1 (centres undefined),inactive
7,c1ccc(-c2nc(N3CCCCC3)nc3ccccc23)cc1,inactive
8,Cc1ccc(-c2cc(C(=O)Nc3ccccc3C)c3ccccc3n2)o1,inactive
9,O=C(c1cccc(Br)c1)N1CCN(c2cnn(-c3ccccc3)c(=O)c2Cl)CC1,inactive
10,Cc1cccc(N2CCN(C(=S)Nc3ccc4nc(N5CCN(C)CC5)cc(C)c4c3)CC2)c1C,inactive
11,O=C(NCCc1ccccc1)c1ccc2nc(-c3ccco3)c(-c3ccco3)nc2c1,inactive
12,CCNC(=O)N1c2ccc(OCC)cc2C(C)=CC1(C)C,inactive
13,C/C(=N\NC(=O)Cc1cccn1C)c1ccc2ccccc2c1,inactive
14,CC(=O)Nc1ccc2nc(CN3CCN(CC(C)C)C(CCO)C3)ccc2c1 (centres undefined),inactive
15,COc1cccc(/C=N/Nc2nn3cnnc3c3ccccc23)c1O,inactive
16,CCCCOc1ccc(Cc2c(Cl)nc(SC)nc2N2CCOCC2)cc1,inactive
17,CCc1ccc(/C=C/C(=O)c2cc(Br)ccc(=O)c2O)cc1,inactive
18,CCOc1cc(NC(=S)NC)c(OCC)cc1NC(=O)c1ccc(OC)cc1,inactive
19,CCOC(=O)C1=C(CC)Nc2ccccc2N=C1NC(=O)c1ccc(S(=O)(=O)N2CCOCC2)cc1,inactive
20,COC(=O)c1sc2nc[nH]c(=O)c2c1C,inactive
21,COc1cc2nc(=S)n(CCCN3CCOCC3)c(N)c2cc1OC,inactive
22,COc1ccc(C2=Nn3c(nnc3-c3ccco3)SC2)cc1OC,inactive
23,CCOC(=O)C1CCCN(c2ncnc3c2cnn3-c2cccc(C)c2)C1 (centres undefined),inactive
24,CNCc1ccccc1Sc1cc(O)ccc1O,inactive

row,Compound,percent span (inhibition)
1,Nc1ccc(N2CCCCCC2)cc1,inactive
2,CCOC(=O)c1nc(Nc2ccc(N3CCC(C)CC3)cc2)c2ccccc2n1,inactive
3,CN=C(NC1CCCCC1)c1ccc(Cl)cc1,inactive
4,Fc1ccccc1/C=C1\CCCC2=C1NC(=S)NC2c1ccccc1F (centres undefined),inactive
5,CCOc1ccccc1NC(=O)CSc1ccc2nnc(-c3cccnc3)n2n1,inactive
6,Cc1cc(N2CCN(C)CC2)nc2ccc(NC(=S)N3CCC4(CC3)OCCO4)cc12,inactive
7,S=C(Nc1ccc(N2CCOCC2)cc1)Nc1ccc2nc(-c3ccco3)c(-c3ccco3)nc2c1,inactive
8,O=C(C1=NN[C@@H]2C(=O)N(c3cccc(F)c3)C(=O)[C@H]12)c1ccc2ccccc2n1,inactive
9,O=C(c1cnccn1)N(Cc1cccs1)C1(C(=O)NC2CCCCC2)CCCCC1,inactive
10,Cc1cc(C)c[n+](-c2nc3ccccc3nc2C(=C=[N-])C#N)c1,inactive
11,Cc1ccnc(NS(=O)(=O)c2ccc(NS(=O)(=O)c3cccs3)cc2)n1,inactive
12,CC1(C)SC(=S)N(NC(=O)Nc2ccccc2)C1N(O)C(=O)Nc1cccc2ccccc12 (centres undefined),inactive
13,CCOc1cc(/C=C2/N=C(C)C(C(=O)OC)=C2O)ccc1O,inactive
14,CCSc1ncnc2sc(C)c(C)c12,inactive
15,CC(CCc1ccccc1)NC(=O)C1CCN(S(=O)(=O)N2CCCCC2)CC1 (centres undefined),inactive
16,CC1CCN(C2(O)C(=O)Nc3ccc(Br)cc32)CC1 (centres undefined),inactive
17,Cc1ccc2nc3c(cc(C(N)=S)c(=N)n3CCCOC(C)C)c(=O)n2c1,inactive
18,Cn1c(N)c(C(=O)COC(=O)c2cncc(Br)c2)c(=O)n(C)c1=O,inactive
19,CCOc1ccc2nc(SCC(=O)N3c4ccccc4Sc4ccccc43)c(C#N)cc2c1,inactive
20,O=C(Nc1ccc(Cl)cn1)Nc1ccccc1F,inactive
21,CC1Nc2ccccc2C(=O)N1NS(=O)(=O)c1ccccc1 (centres undefined),inactive
22,COc1cccc(N2CC(C(=O)Nc3nnc(SCC(=O)c4ccccc4)s3)CC2=O)c1 (centres undefined),inactive
23,COCCn1nnnc1CN(Cc1ccco1)Cc1cc2cc3c(cc2[nH]c1=O)OCO3,inactive
24,Cc1cc(Cl)c(S(=O)(=O)NCC2CCCO2)cc1OCC(N)=O (centres undefined),inactive

row,Compound,percent span (inhibition)
1,COc1ccc(C)cc1Nc1ccc(C(=O)O)cc1[N+](=O)[O-],inactive
2,Cn1c(N)c(C(=O)COC(=O)c2cc(-c3ccco3)nc3ccccc23)c(=O)n(Cc2ccccc2)c1=O,inactive
3,CCOCCCNc1nc(=S)[nH]c2cc(OC)c(OC)cc12,inactive
4,CCNC(=S)Nc1ccc(OCC)cc1,inactive
5,CCn1c(SCC(=O)Nc2ccc(C)cc2)nnc1-c1ccc(O)cc1,inactive
6,O=c1c2c(n3nnnc3n1Cc1ccccc1)-c1ccccc1CC21CCCC1,inactive
7,CCCn1c(C)cc(-c2csc(N)n2)c1C,inactive
8,COc1ccccc1-n1c(-c2ccc(Cl)cc2)c[nH]c1=S,inactive
9,Cc1nonc1NC(=O)CSc1nnc(-c2ccoc2C)n1C,inactive
10,CCOc1c(Cl)cc(CNc2ccc(N3CCCC3)cc2)cc1OC,inactive
11,COc1cc(NC(=S)NC(=O)c2cc(C)cc(C)c2)ccc1NC(=O)c1cccs1,inactive
12,O=C(NCCCN1CCCC1=O)NC1CCCCC1,inactive
13,Cc1ccc(C(=O)C(C(=O)/C=C/c2ccccc2)=C2SCCCS2)cc1,inactive
14,CNC(=S)N(Cc1cccs1)Cc1cc2ccc(OC)cc2[nH]c1=O,inactive
15,Cc1ccc(C2=N/C(=C/c3cccs3)C(=O)N2Nc2ccccc2)cc1,inactive
16,O=C(c1ccc(CNS(=O)(=O)c2ccc(Br)cc2)cc1)N1CCCC1,inactive
17,O=C(OCc1nc2ccccc2[nH]1)C12CC3CC(CC(C3)C1)C2,inactive
18,Cc1noc(C)c1COc1ccc(C(=O)Nc2cccnc2)cc1,inactive
19,Cc1nc(NC(=O)CC(C)C)sc1-c1csc(Nc2ccc(Cl)cc2)n1,inactive
20,Cc1cc(OCc2cn3cccnc3n2)ccc1Cl,inactive
21,Cc1nc2cc(F)ccc2n1C1CCN(C(=O)c2c(F)cccc2F)CC1,inactive
22,COc1ccc(OC)c(-n2c(=O)c3ccccc3c3ccccc3c2=O)c1,inactive
23,CCOC(=O)c1[nH]cnc1C(=O)NC(C)C,inactive
24,CCOC(=O)c1ccc(Nc2nc(C(=O)OCC)nc3ccccc23)cc1,inactive
